For 36 molecules, IC50 results are on record in patent US20240208965A1, “HETEROARYL ALKYLENE SUBSTITUTED 2-OXOQUINAZOLINE DERIVATIVES AS METHIONINE ADENOSYLTRANSFERASE 2A INHIBITORS” (IDEAYA BIOSCIENCES, INC., priority 2020, published 2024).

SMILES strings stand for the structures.

The target in the first assay is T1, Human MAT2A (Homo sapiens, UniProt P31153).
T1 construct: Human MAT2A: Cepter, amino acids 1-395 Clone ID 334, lot 00023-148; purchased Cepter clone ID 334, lot 00023-148
T1 sequence (P31153 whole entry, the tested form may be a part): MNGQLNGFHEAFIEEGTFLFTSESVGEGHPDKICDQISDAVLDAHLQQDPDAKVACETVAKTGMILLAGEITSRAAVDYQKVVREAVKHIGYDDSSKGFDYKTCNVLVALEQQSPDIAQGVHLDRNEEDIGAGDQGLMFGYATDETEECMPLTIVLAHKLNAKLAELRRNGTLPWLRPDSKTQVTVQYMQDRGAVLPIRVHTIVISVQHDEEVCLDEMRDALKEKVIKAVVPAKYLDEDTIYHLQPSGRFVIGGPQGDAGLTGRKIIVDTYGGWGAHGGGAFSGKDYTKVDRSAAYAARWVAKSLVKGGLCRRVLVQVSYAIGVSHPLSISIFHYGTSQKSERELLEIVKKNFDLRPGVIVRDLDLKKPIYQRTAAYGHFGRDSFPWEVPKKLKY
As to the kind of experiment: Phosphate Sensor Fluorescence Assay (Biologic Example B). Type of assay: biochemical. The conditions noted are these: MAT2A inhibition, Biological Example B procedure (Compounds 1.029-1.070); 5.8 nM MAT2A, 500 uM L-methionine, 500 uM ATP. Here is the method: The ability of the compound of present disclosure to inhibit MAT2A enzyme was determined using a Phosphate Sensor Fluorescence Assay described below.
Biologic Example B. Phosphate Sensor Fluorescence Assay
MAT2A enzyme is incubated with a test compound in DMSO or DMSO and its substrates (L-methionine and ATP) in a microtiter plate. The enzymatic reaction is stopped by the addition of Working Phosphate Sensor Mixture. The plate is analyzed for fluorescence at 450 nm. The high control (DMSO with enzyme and its substrates) gives high fluorescence which represents no inhibition of enzymatic activity while the low control (DMSO with MAT2A substrates and no enzyme) gives low fluorescence which represents full inhibition of enzymatic activity.
• Human MAT2A: Cepter, amino acids 1-395 Clone ID 334, lot 00023-148 • Tris, pH 7.5: Invitrogen cat #15567-027 • KCl: Ambion cat #AM9640G • MgCl2: Ambion cat #AM9530G • Brij-35: Sigma cat B4184-10ML • DTT: Goldbio cat #DTT100 • BGG: Sigma cat #G5009-25G • PNP: Novus Biologicals cat #NBP1-50872 • 7-MEG: Cayman Chemical cat #15988 • L-Methionine: JTBaker P/N 2085-05 • ATP: Promega P/N V915B • Phosphate Sensor: Invitrogen cat #PV4407 • EDTA: Life Tech cat #15575-038 • Assay plate: 384-well black polypropylene plate: Corning P/N 3573
• Assay Buffer: 50 mM Tris, pH 7.5/50 mM KCl/10 mM MgCl2/0.01% Brij-35/1 mM DTT/0.01% BGG/40 nM PNP/6 uM 7-MEG • MAT2A: 5.8 nM MAT2A (1-395), Cepter, clone ID 334, lot 00023-148 before the addition of Working Phosphate Sensor Mixture • L-methionine: 500 uM before the addition of Working Phosphate Sensor Mixture • ATP: 500 uM before the addition of Working Phosphate Sensor Mixture
For the assay, a mixture of 1 mM L-methionine/1 mM ATP (2× final pre-stopped concentration) in assay buffer; MAT2A (2× final pre-stopped concentration) in Assay Buffer and Working Phosphate Sensor Mixture (1.5 uM Phosphate Sensor/30 mM EDTA in Assay Buffer, which is 3× final concentrations) were prepared. Test compounds or DMSO were added to the appropriate well using a Beckman Coulter Echo 550 acoustic liquid handler. 10 μL/well of Assay Buffer was added to the wells corresponding to the negative control and 10 μL/well of MAT2A was added to all the wells except for those corresponding to the negative control. After incubating the plate at room temperature for 15 minutes, 10 μL/well of the 1 mM L-methionine/1 mM ATP mixture was added to all wells. The plate was centrifuged at 1000 rpm for 1 minute and then incubated at room temperature for 1 hour. 10 μL of the Working Phosphate Sensor Mixture was added to all wells and the plate was centrifuged at 1000 rpm for 1 minute. The plate was read for fluorescence at 450 nm after exciting at 430 nm on a Tecan Spark microplate reader.
Percent inhibition was calculated in Chemical and Biological Information System (CBIS), (ChemInnovation Software Inc.). Curves were fitted by CBIS as % inhibition vs. log [compound concentration] using a 4-parameter inhibition model.
Fit=(A+((B−A)/(1+((C/x)^D))))
Compounds 1.001-1.028 were tested using the procedure described in Bioogical Example A, described above. Compounds 1.029-1.070 were tested using the procedure described in Biological Example B, described above.
Molecule `CC(c1cc[nH]n1)n1c(=O)nc(N(C)C)c2ccc(Cl)cc21` (racemic) [1.062, 1-(1-(1H-pyrazol-3-yl)ethyl)-7-chloro-4-(dimethylamino)quinazolin-2(1H)-one] came in with an IC50 of under 10 nM. For `CCN(C)c1nc(=O)n([C@@H](C)c2cnc[nH]2)c2cc(C(F)(F)F)ccc12` (single isomer, unassigned) [1.035], the half-maximal inhibitory concentration (IC50) lay in the range of 10 to 200 nM. In turn, `CCN(C)c1nc(=O)n([C@H](C)c2cnc[nH]2)c2cc(C(F)(F)F)ccc12` (single isomer, unassigned) [1.036] had an IC50 of 10 to 200 nM. The molecule `CC(C)N(C)c1nc(=O)n([C@@H](C)c2cnc[nH]2)c2cc(C(F)(F)F)ccc12` (single isomer, unassigned) [1.037] came in with an IC50 of 10 to 200 nM. For the molecule `CC(C)N(C)c1nc(=O)n([C@H](C)c2cnc[nH]2)c2cc(C(F)(F)F)ccc12` (single isomer, unassigned) [1.038], the concentration for half-maximal inhibition (IC50) was 10 to 200 nM. Turning to `C[C@H](c1cnc[nH]1)n1c(=O)nc(N2CCC2)c2ccc(Br)cc21` (single isomer, unassigned) [1.039], the IC50 is 200 to 500 nM. `C[C@@H](c1cnc[nH]1)n1c(=O)nc(N2CCC2)c2ccc(Br)cc21` (single isomer, unassigned) [1.040] returned a half-maximal inhibitory concentration (IC50) of 10 to 200 nM.

The molecule `CC[C@H](c1cnc[nH]1)n1c(=O)nc(N(C)C)c2ccc(C(F)(F)F)cc21` (single isomer, unassigned) [1.041] showed a half-maximal inhibitory concentration (IC50) of 10 to 200 nM. On the same count and under the same terms, next, `CC[C@@H](c1cnc[nH]1)n1c(=O)nc(N(C)C)c2ccc(C(F)(F)F)cc21` (single isomer, unassigned) [1.042]: 200 to 500 nM; `C[C@H](c1cnc[nH]1)n1c(=O)nc(N(C)C)c2ccc(Br)cc21` (single isomer, unassigned) [1.043]: 10 to 200 nM; `C[C@@H](c1cnc[nH]1)n1c(=O)nc(N(C)C)c2ccc(Br)cc21` (single isomer, unassigned) [1.044]: under 10 nM.

Consider `C[C@H](c1cnc[nH]1)n1c(=O)nc(N(C)C)c2ccc(Cl)cc21` (single isomer, unassigned) [1.047], for which the IC50 was under 10 nM. In turn, `C[C@@H](c1cnc[nH]1)n1c(=O)nc(N(C)C)c2ccc(Cl)cc21` (single isomer, unassigned) [1.048] registered an IC50 of 10 to 200 nM.

Regarding `C[C@H](c1cc[nH]n1)n1c(=O)nc(N(C)C)c2ccc(Cl)cc21` (single isomer, unassigned) [1.059], the 50% inhibitory concentration (IC50) is under 10 nM. The same measure, in the same setting: to `C[C@H](c1nc[nH]n1)n1c(=O)nc(N(C)C)c2ccc(Cl)cc21` (single isomer, unassigned) [1.060] belongs 10 to 200 nM. Same read-out and setting: to `C[C@@H](c1nc[nH]n1)n1c(=O)nc(N(C)C)c2ccc(Cl)cc21` (single isomer, unassigned) [1.061] belongs 500 to 1000 nM; to `CN(C)c1nc(=O)n([C@@H](c2c[nH]cn2)C(F)F)c2nc(C(F)(F)F)ccc12` (single isomer, unassigned) [1.063], 1000 to 10000 nM. The same measure, in the same setting: to `CN(C)c1nc(=O)n([C@H](c2c[nH]cn2)C(F)F)c2nc(C(F)(F)F)ccc12` (single isomer, unassigned) [1.064] belongs 200 to 500 nM; to `C[C@H](c1cc[nH]n1)n1c(=O)nc(N)c2ccc(Cl)cc21` (single isomer, unassigned) [1.069], 10 to 200 nM; to `C[C@@H](c1cc[nH]n1)n1c(=O)nc(N)c2ccc(Cl)cc21` (single isomer, unassigned) [1.070], 200 to 500 nM. For `CNc1nc(=O)n(Cc2cnsc2)c2cc(C(F)(F)F)ccc12` [1.029, 1-(Isothiazol-4-ylmethyl)-4-(methylamino)-7-(trifluoromethyl)quinazolin-2(1H)-one], the IC50 was in the range of 1000 to 10000 nM. The same measure, in the same setting: next, `CN(C)c1nc(=O)n(Cc2cnc[nH]2)c2cc(C(F)(F)F)ccc12` [1.030, 1-((1H-Imidazol-5-yl)methyl)-4-(dimethylamino)-7-(trifluoromethyl)quinazolin-2(1H)-one]: 10 to 200 nM. `CC(c1c[nH]cn1)n1c(=O)nc(N(C)C)c2ccc(Br)cc21` (stereo not drawn) [1.031, 1-(1-(1H-imidazol-4-yl)ethyl)-7-bromo-4-(dimethylamino)quinazolin-2(1H)-one] showed an IC50 of 10 to 200 nM.

Take `CC(c1c[nH]cn1)n1c(=O)nc(N2CCC2)c2ccc(Br)cc21` (stereo not drawn) [1.032, 1-(1-(1H-imidazol-4-yl)ethyl)-4-(azetidin-1-yl)-7-bromoquinazolin-2(1H)-one]: the IC50 was in the range of 10 to 200 nM. Same read-out and setting: next, `CCC(c1cnc[nH]1)n1c(=O)nc(N(C)C)c2ccc(C(F)(F)F)cc21` (stereo not drawn) [1.033, 1-(1-(1H-imidazol-5-yl)propyl)-4-(dimethylamino)-7-(trifluoromethyl)quinazolin-2(1H)-one]: 200 to 500 nM; `CN(C)c1nc(=O)n(Cc2cnc[nH]2)c2cc(Cl)ccc12` [1.034, 1-((1H-imidazol-5-yl)methyl)-7-chloro-4-(dimethylamino)quinazolin-2(1H)-one]: 200 to 500 nM; `CN(C)c1nc(=O)n(C(c2cnc[nH]2)C2CC2)c2cc(C(F)(F)F)ccc12` (stereo not drawn) [1.045, 1-(Cyclopropyl(1H-imidazol-5-yl)methyl)-4-(dimethylamino)-7-(trifluoromethyl)quinazolin-2(1H)-one]: 200 to 500 nM.

In turn, `CC(c1cnc[nH]1)n1c(=O)nc(N(C)C)c2ccc(C(F)(F)F)nc21` (stereo not drawn) [1.046, 1-(1-(1H-Imidazol-5-yl)ethyl)-4-(dimethylamino)-7-(trifluoromethyl)pyrido[2,3-d]pyrimidin-2(1H)-one] came in with an IC50 of 10 to 200 nM.

For `Cc1nc[nH]c1Cn1c(=O)nc(N(C)C)c2ccc(C(F)(F)F)cc21` [1.050, 4-(Dimethylamino)-1-((4-methyl-1H-imidazol-5-yl)methyl)-7-(trifluoromethyl)quinazolin-2(1H)-one], the IC50 lay in the range of 1000 to 10000 nM. As for `CN(C)c1nc(=O)n(Cc2nc[nH]n2)c2cc(C(F)(F)F)ccc12` [1.051, 1-((1H-1,2,4-Triazol-3-yl)methyl)-4-(dimethylamino)-7-(trifluoromethyl)quinazolin-2(1H)-one], the IC50 was in the range of 10 to 200 nM. In turn, `CN(C)c1nc(=O)n(Cc2ccccn2)c2nc(C(F)(F)F)ccc12` [1.052, 4-(Dimethylamino)-1-(pyridin-2-ylmethyl)-7-(trifluoromethyl)pyrido[2,3-d]pyrimidin-2(1H)-one] had an IC50 of 10 to 200 nM.

Consider `CN(C)c1nc(=O)n(Cc2cccnc2)c2nc(C(F)(F)F)ccc12` [1.053, 4-(Dimethylamino)-1-(pyridin-3-ylmethyl)-7-(trifluoromethyl)pyrido[2,3-d]pyrimidin-2(1H)one], for which the IC50 was in the range of 1000 to 10000 nM. Still for that read-out and setting: next, `CN(C)c1nc(=O)n(Cc2ccncc2)c2nc(C(F)(F)F)ccc12` [1.054, 4-(Dimethylamino)-1-(pyridin-4-ylmethyl)-7-(trifluoromethyl)pyrido[2,3-d]pyrimidin-2(1H)one]: 1000 to 10000 nM; `CN(C)c1nc(=O)n(Cc2cncn2C)c2cc(C(F)(F)F)ccc12` [1.055, 4-(dimethylamino)-1-((1-methyl-1H-imidazol-5-yl)methyl)-7-(trifluoromethyl)quinazolin-2(1H)-one]: 200 to 500 nM.

In the case of `CN(C)c1nc(=O)n(Cc2ccn[nH]2)c2cc(Cl)ccc12` [1.056, 1-((1H-pyrazol-5-yl)methyl)-7-chloro-4-(dimethylamino)quinazolin-2(1H)-one], the IC50 is 10 to 200 nM.

Still in this assay, the particulars now being: MAT2A inhibition, Biological Example B procedure; printed as a numeric bound, not a class symbol.
For `Cc1ncc(Cn2c(=O)nc(N(C)C)c3ccc(C(F)(F)F)cc32)[nH]1` [1.049, 4-(Dimethylamino)-1-((2-methyl-1H-imidazol-5-yl)methyl)-7-(trifluoromethyl)quinazolin-2(1H)-one], the half-inhibitory concentration (IC50) was over 10000 nM.
